{"source": "PubChem BioAssay AID1189", "about": "(EPA DSSTox, 2008)", "assay": "DSSTox (CPDBAS) Carcinogenic Potency Database Summary SingleCellCall Results", "conditions": "animal chronic carcinogenicity bioassays, CPDB summary call", "outline": "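Categorical carcinogenicity call compiled from published chronic rodent and other animal cancer bioassays; based on the most positive result across experiments for each sex-species, assigned on minimal evidence for or against activity.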", "note": "Active and inactive are the calls of the source.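 How the source made its calls: active means a tumor-causing dose value with its tumor site reported for any sex and species group of a rodent or other animal cancer study; inconclusive means only studies judged inadequate by the national testing program; inactive means tested in at least one study, none positive.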"}
{"smiles": "CN(Cc1cnc2nc(N)nc(N)c2n1)c1ccc(C(=O)N[C@@H](CCC(=O)O)C(=O)O)cc1", "values": [{"measurement": "outcome", "value": "inactive"}]}
{"smiles": "CC(C)(C)NC[C@H](O)COc1cccc2c1CCCC2=O", "values": [{"measurement": "outcome", "value": "inactive"}]}
{"smiles": "CC(C)N=[N+]([O-])C(C)C", "values": [{"measurement": "outcome", "value": "active"}]}
{"smiles": "S=c1nc[nH]c2nc[nH]c12", "values": [{"measurement": "outcome", "value": "inactive; active"}]}
{"smiles": "Cc1ccc(O)c(O)c1", "values": [{"measurement": "outcome", "value": "active; inactive"}]}
{"smiles": "Nc1ccc(N=Nc2ccc(-c3ccc(N=Nc4c(S(=O)(=O)O)cc5cc(S(=O)(=O)O)c(N=Nc6ccccc6)c(O)c5c4N)cc3)cc2)c(N)c1", "values": [{"measurement": "outcome", "value": "active; inactive"}]}
{"smiles": "CC(=O)NNc1ccccc1", "values": [{"measurement": "outcome", "value": "active"}]}
{"smiles": "CCN(CC)CCCNC(=O)Cn1ncc(-c2ccccc2)c1-c1ccccc1", "values": [{"measurement": "outcome", "value": "inactive"}]}
{"smiles": "O=C(O)CNCC(=O)O", "values": [{"measurement": "outcome", "value": "inactive"}]}
{"smiles": "C=C/C1=C/[C@H](C)[C@](C)(OC(C)=O)C(=O)OCC2=CC[N+]3(C)CC[C@@H](OC1=O)C23[O-]", "note": "(some centres not stated)", "values": [{"measurement": "outcome", "value": "active; inactive"}]}
{"smiles": "[Cd+2].[Cl-].[Cl-]", "values": [{"measurement": "outcome", "value": "active; inactive"}]}
{"smiles": "CCCCNC(=O)N(CCCC)N=O", "values": [{"measurement": "outcome", "value": "active"}]}
{"smiles": "O=c1ccc2ccccc2o1", "values": [{"measurement": "outcome", "value": "active; inactive"}]}
{"smiles": "CN(CCc1ccccc1)N=O", "values": [{"measurement": "outcome", "value": "active"}]}
{"smiles": "O=C1OC(C(O)CO)C(O)=C1O", "note": "(configuration not stated)", "values": [{"measurement": "outcome", "value": "inactive"}]}
{"smiles": "CCOC(=O)CC(SP(=O)(OC)OC)C(=O)OCC", "note": "(configuration not stated)", "values": [{"measurement": "outcome", "value": "inactive"}]}
{"smiles": "Cc1cc(-c2ccc(N)c(C)c2)ccc1N", "values": [{"measurement": "outcome", "value": "active"}]}
{"smiles": "COc1ccccc1[N+](=O)[O-]", "values": [{"measurement": "outcome", "value": "active"}]}
{"smiles": "CC(C)Nc1nc(Cl)nc(NC(C)C)n1", "values": [{"measurement": "outcome", "value": "inactive"}]}
{"smiles": "O=NN1CCOC1", "values": [{"measurement": "outcome", "value": "active; inactive"}]}
{"smiles": "CC(O)CNC(=O)N(N=O)C(C)Cl", "note": "(configuration not stated)", "values": [{"measurement": "outcome", "value": "active"}]}
{"smiles": "CCOc1ccc(NC(C)=O)cc1[N+](=O)[O-]", "values": [{"measurement": "outcome", "value": "active"}]}
{"smiles": "Cl/C=C/CCl", "values": [{"measurement": "outcome", "value": "active"}]}
{"smiles": "O=[N+]([O-])c1ccc(Oc2ccc(Cl)cc2Cl)cc1", "values": [{"measurement": "outcome", "value": "active"}]}
{"smiles": "CCC(C)c1cc([N+](=O)[O-])cc([N+](=O)[O-])c1O", "note": "(configuration not stated)", "values": [{"measurement": "outcome", "value": "inactive"}]}
{"smiles": "CN=[N+](C)[O-]", "values": [{"measurement": "outcome", "value": "active"}]}
{"smiles": "CCCN(N=O)C(=N)N[N+](=O)[O-]", "values": [{"measurement": "outcome", "value": "active"}]}
{"smiles": "OB(O)O", "values": [{"measurement": "outcome", "value": "inactive; active"}]}
{"smiles": "COc1cc(O)c2c(=O)c3c(OC)cc4c(c3oc2c1OC)C1C=COC1O4", "note": "(configuration not stated)", "values": [{"measurement": "outcome", "value": "active"}]}
{"smiles": "CCCCOC(=O)c1ccccc1C(=O)OCc1ccccc1", "values": [{"measurement": "outcome", "value": "active"}]}
{"smiles": "CBr", "values": [{"measurement": "outcome", "value": "inactive; active"}]}
{"smiles": "O=[Se]=O", "values": [{"measurement": "outcome", "value": "inactive"}]}
{"smiles": "CN(N=O)C(=O)c1c(N(C)N=O)ncn1C", "values": [{"measurement": "outcome", "value": "active"}]}
{"smiles": "CN1[C@@H]2CC[C@H]1CC(OC(=O)C(CO)c1ccccc1)C2", "note": "(some centres not stated)", "values": [{"measurement": "outcome", "value": "inactive; active"}]}
{"smiles": "CC(C)CN(N=O)C(N)=O", "values": [{"measurement": "outcome", "value": "active"}]}
{"smiles": "NNC(=O)c1ccccc1", "values": [{"measurement": "outcome", "value": "active"}]}
{"smiles": "O=C1CN(/N=C/c2ccc([N+](=O)[O-])o2)C(=O)N1", "values": [{"measurement": "outcome", "value": "active"}]}
{"smiles": "O=NN1CCCC1c1ccc[n+]([O-])c1", "note": "(configuration not stated)", "values": [{"measurement": "outcome", "value": "active; inactive"}]}
{"smiles": "Cc1nnc2n1-c1sc(CCc3ccc(CC(C)C)cc3)cc1C(c1ccccc1Cl)=NC2C", "note": "(configuration not stated)", "values": [{"measurement": "outcome", "value": "inactive"}]}
{"smiles": "Nc1c(Cl)c(Cl)nc(C(=O)O)c1Cl", "values": [{"measurement": "outcome", "value": "inactive"}]}
{"smiles": "COc1cc2c(c3c1c(=O)c1ccccc1n3C)C=CC(C)(C)O2", "values": [{"measurement": "outcome", "value": "active; inactive"}]}
{"smiles": "C[C@@H]1Cc2c(Cl)cc(C(=O)N[C@@H](Cc3ccccc3)C(=O)O)c(O)c2C(=O)O1", "values": [{"measurement": "outcome", "value": "active"}]}
{"smiles": "Nc1cc(Cl)c(N)c(Cl)c1", "values": [{"measurement": "outcome", "value": "active; inactive"}]}
{"smiles": "O=C1C(Cl)=C(Cl)C(=O)C(Cl)=C1Cl", "values": [{"measurement": "outcome", "value": "inactive"}]}
{"smiles": "NNc1nc(-c2ccc(N)cc2)cs1", "values": [{"measurement": "outcome", "value": "active"}]}
{"smiles": "Cc1c(N(C)CS(=O)(=O)O)c(=O)n(-c2ccccc2)n1C", "values": [{"measurement": "outcome", "value": "active"}]}
{"smiles": "CCOCCc1c(-c2ccccc2)nc(N)n2ncnc12", "values": [{"measurement": "outcome", "value": "active; inactive"}]}
{"smiles": "C1CCCNCCC1", "values": [{"measurement": "outcome", "value": "inactive"}]}
{"smiles": "CC(=O)CN(C)N=O", "values": [{"measurement": "outcome", "value": "active"}]}
{"smiles": "C=C1CC[C@H](O)C/C1=C/C=C1\\CCC[C@]2(C)[C@@H]([C@H](C)CC[C@@H](O)C(C)(C)O)CC[C@@H]12", "values": [{"measurement": "outcome", "value": "inactive; active"}]}
{"smiles": "NS(=O)(=O)c1cc2c(cc1Cl)NCNS2(=O)=O", "values": [{"measurement": "outcome", "value": "inactive; active"}]}
{"smiles": "CN(C#N)N=O", "values": [{"measurement": "outcome", "value": "active"}]}
